Experimental data: ChEMBL document CHEMBL4507260 (2021)

Assays:
Settings in all cases: Compound concentration 1000.0 nM
[1] = test system: ALK tyrosine kinase receptor (Homo sapiens), Q9UM73 [C1156Y]
[2] = target: Mitogen-activated protein kinase 1 (Homo sapiens) (UniProt P28482)
[3] = target: Ribosomal protein S6 kinase alpha-1 (Homo sapiens) (UniProt Q15418)
[4] = target: Serine/threonine-protein kinase DCLK3 (Homo sapiens) (UniProt Q9C098)
[5] = target: Dual specificity mitogen-activated protein kinase kinase 4 (Homo sapiens) (UniProt P45985)
[6] = target: Tyrosine-protein kinase BTK (Homo sapiens) (UniProt Q06187)
[7] = target: MAP/microtubule affinity-regulating kinase 3 (Homo sapiens) (UniProt P27448)
MAP/microtubule affinity-regulating kinase 3 (Homo sapiens), sequence (P27448 whole entry, looked up): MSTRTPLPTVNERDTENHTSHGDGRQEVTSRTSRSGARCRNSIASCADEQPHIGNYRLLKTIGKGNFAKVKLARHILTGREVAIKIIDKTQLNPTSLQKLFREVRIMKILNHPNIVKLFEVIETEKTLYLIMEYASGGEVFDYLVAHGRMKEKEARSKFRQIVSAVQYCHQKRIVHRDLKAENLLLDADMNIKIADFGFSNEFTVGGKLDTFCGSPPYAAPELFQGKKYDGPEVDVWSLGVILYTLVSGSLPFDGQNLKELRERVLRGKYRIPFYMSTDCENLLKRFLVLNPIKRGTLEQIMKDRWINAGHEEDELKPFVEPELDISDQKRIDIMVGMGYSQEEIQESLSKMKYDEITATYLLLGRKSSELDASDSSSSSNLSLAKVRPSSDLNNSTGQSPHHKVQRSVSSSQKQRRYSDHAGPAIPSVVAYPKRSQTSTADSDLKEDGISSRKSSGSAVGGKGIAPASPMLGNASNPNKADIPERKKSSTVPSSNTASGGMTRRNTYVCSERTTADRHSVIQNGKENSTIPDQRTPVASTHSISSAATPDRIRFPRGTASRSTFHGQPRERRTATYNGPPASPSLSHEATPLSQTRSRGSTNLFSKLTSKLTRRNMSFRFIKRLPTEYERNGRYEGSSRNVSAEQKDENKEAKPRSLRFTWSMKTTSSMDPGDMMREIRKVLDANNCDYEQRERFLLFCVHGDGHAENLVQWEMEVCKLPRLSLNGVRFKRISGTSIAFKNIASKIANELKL

[8] = target: Serine/threonine-protein kinase OSR1 (Homo sapiens) (UniProt O95747)
[9] = target: Ribosomal protein S6 kinase alpha-4 (Homo sapiens) (UniProt O75676)
Ribosomal protein S6 kinase alpha-4 (Homo sapiens), sequence (O75676 whole entry, looked up, canonical isoform): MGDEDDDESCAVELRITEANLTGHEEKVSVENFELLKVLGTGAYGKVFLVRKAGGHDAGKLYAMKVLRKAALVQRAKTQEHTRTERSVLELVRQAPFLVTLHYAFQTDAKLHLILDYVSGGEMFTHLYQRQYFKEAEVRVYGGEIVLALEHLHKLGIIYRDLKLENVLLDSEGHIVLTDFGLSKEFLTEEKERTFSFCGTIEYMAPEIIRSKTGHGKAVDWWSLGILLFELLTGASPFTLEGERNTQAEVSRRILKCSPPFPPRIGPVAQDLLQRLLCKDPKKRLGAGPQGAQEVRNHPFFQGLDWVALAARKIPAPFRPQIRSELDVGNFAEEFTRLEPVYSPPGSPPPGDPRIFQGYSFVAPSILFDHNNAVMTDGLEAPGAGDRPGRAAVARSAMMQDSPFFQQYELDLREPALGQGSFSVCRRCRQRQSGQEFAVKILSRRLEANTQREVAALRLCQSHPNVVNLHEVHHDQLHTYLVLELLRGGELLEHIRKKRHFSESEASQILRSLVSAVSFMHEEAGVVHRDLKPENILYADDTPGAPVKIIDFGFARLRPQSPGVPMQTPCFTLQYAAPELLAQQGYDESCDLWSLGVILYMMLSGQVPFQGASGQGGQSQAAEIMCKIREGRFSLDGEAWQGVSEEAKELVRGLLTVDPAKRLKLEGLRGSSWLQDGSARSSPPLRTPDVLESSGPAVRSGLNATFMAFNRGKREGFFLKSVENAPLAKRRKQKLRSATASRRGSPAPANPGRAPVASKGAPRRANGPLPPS

[10] = test system: Phosphatidylinositol 4,5-bisphosphate 3-kinase catalytic subunit alpha isoform (Homo sapiens), P42336 [M1043I]
Phosphatidylinositol 4,5-bisphosphate 3-kinase catalytic subunit alpha isoform (Homo sapiens), P42336 [M1043I], sequence (P42336 whole entry M1043I, canonical isoform): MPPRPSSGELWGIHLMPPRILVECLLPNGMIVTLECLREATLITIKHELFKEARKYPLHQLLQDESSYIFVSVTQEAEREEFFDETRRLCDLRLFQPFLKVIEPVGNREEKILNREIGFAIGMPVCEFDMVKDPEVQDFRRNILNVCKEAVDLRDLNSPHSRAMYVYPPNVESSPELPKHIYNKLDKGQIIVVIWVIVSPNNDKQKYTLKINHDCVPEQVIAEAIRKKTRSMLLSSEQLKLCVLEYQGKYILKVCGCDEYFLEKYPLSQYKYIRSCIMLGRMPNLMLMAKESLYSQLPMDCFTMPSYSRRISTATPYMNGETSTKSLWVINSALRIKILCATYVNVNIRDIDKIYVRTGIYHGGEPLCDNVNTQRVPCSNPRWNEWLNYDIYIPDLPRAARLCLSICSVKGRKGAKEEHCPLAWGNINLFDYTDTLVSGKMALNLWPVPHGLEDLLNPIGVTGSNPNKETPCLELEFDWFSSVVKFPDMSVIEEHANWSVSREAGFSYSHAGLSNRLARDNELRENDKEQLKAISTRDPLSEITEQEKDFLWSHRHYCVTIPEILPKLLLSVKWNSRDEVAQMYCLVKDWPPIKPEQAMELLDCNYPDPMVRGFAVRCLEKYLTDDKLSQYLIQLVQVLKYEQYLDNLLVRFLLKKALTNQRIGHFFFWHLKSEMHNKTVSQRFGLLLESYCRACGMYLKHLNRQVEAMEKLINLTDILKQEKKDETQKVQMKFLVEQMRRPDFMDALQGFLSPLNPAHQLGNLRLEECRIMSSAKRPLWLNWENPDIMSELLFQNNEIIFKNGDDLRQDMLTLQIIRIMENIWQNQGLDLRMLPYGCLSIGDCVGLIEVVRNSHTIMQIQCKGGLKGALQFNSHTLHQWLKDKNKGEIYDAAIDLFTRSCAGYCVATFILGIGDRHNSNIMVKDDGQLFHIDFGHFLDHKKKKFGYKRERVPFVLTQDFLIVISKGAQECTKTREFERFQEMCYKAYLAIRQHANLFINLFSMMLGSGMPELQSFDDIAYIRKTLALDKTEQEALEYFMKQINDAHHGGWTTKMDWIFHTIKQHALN

[11] = target: Phosphatidylinositol 4-phosphate 5-kinase type-1 alpha (Homo sapiens) (UniProt Q99755)
Phosphatidylinositol 4-phosphate 5-kinase type-1 alpha (Homo sapiens), sequence (Q99755 whole entry): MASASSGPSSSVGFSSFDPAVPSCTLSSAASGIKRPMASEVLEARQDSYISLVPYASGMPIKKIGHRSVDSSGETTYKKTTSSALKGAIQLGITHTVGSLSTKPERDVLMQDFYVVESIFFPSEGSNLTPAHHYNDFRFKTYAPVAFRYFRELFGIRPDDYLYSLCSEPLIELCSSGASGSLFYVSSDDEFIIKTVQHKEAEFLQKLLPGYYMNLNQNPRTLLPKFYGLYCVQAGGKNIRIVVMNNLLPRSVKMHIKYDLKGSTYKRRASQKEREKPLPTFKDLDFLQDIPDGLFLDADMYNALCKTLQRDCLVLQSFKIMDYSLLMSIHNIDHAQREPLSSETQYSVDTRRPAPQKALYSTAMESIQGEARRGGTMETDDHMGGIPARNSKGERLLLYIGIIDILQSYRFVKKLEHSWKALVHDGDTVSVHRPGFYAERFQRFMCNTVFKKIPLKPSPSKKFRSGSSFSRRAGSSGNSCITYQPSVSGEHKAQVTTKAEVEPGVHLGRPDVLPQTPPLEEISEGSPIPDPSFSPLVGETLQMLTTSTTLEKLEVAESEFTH

[12] = target: Interleukin-1 receptor-associated kinase 4 (Homo sapiens) (UniProt Q9NWZ3)
[13] = test system: Serine/threonine-protein kinase B-raf (Homo sapiens), P15056 [V600E]
[14] = target: Bone morphogenetic protein receptor type-1B (Homo sapiens) (UniProt O00238)
[15] = target: Serine/threonine-protein kinase mTOR (Homo sapiens) (UniProt P42345)
[16] = target: Interleukin-1 receptor-associated kinase 3 (Homo sapiens) (UniProt Q9Y616)
[17] = target: Misshapen-like kinase 1 (Homo sapiens) (UniProt Q8N4C8)
[18] = test system: Epidermal growth factor receptor (Homo sapiens), P00533 [UNDEFINED MUTATION]
[19] = target: Inhibitor of nuclear factor kappa-B kinase subunit beta (Homo sapiens) (UniProt O14920)
[20] = target: Serine/threonine-protein kinase 38-like (Homo sapiens) (UniProt Q9Y2H1)
Serine/threonine-protein kinase 38-like (Homo sapiens), sequence (Q9Y2H1 2-464 limits assumed): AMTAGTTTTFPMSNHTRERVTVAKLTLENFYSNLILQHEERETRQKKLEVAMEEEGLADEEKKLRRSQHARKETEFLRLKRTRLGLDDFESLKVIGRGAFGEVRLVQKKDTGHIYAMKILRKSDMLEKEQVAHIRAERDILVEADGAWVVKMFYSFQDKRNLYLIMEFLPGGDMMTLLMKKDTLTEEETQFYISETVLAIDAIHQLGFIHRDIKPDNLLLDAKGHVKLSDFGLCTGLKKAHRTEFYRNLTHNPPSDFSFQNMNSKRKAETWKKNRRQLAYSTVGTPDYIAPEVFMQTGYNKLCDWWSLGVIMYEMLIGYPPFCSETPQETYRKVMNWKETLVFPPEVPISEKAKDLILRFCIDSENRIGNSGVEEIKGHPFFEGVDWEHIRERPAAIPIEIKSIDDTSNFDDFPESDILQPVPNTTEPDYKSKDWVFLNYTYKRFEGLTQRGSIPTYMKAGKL

[21] = target: Tyrosine-protein kinase JAK3 (Homo sapiens) (UniProt P52333)
[22] = target: Focal adhesion kinase 1 (Homo sapiens) (UniProt Q05397)
[23] = test system: Proto-oncogene tyrosine-protein kinase receptor Ret (Homo sapiens), P07949 [V804M]
[24] = target: Macrophage colony-stimulating factor 1 receptor (Homo sapiens) (UniProt P07333)
[25] = target: MAP kinase-activated protein kinase 5 (Homo sapiens) (UniProt Q8IW41)
[26] = target: Ribosomal protein S6 kinase alpha-2 (Homo sapiens) (UniProt Q15349)
[27] = test system: Tyrosine-protein kinase ABL1 (Homo sapiens), P00519 [T315I]
[28] = target: Casein kinase I isoform alpha (Homo sapiens) (UniProt P48729)
Casein kinase I isoform alpha (Homo sapiens), sequence (P48729 2-337 limits assumed): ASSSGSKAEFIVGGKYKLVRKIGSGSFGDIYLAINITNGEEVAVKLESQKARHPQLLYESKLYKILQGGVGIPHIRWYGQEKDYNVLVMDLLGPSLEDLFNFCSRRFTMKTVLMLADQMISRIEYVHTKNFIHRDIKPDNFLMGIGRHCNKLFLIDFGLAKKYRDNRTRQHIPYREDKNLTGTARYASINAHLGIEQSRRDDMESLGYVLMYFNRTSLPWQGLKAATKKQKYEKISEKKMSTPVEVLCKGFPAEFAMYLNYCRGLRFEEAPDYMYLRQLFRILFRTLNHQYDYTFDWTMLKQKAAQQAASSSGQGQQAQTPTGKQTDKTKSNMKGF

[29] = target: Activin receptor type-1 (Homo sapiens) (UniProt Q04771)
[30] = target: Mitogen-activated protein kinase kinase kinase 5 (Homo sapiens) (UniProt Q99683)
[31] = target: RAC-gamma serine/threonine-protein kinase (Homo sapiens) (UniProt Q9Y243)
[32] = target: High affinity nerve growth factor receptor (Homo sapiens) (UniProt P04629)
[33] = target: Ribosomal protein S6 kinase alpha-5 (Homo sapiens) (UniProt O75582)
[34] = target: Mast/stem cell growth factor receptor Kit (Homo sapiens) (UniProt P10721)
[35] = target: G protein-coupled receptor kinase 3 (Homo sapiens) (UniProt P35626)
[36] = target: Macrophage-stimulating protein receptor (Homo sapiens) (UniProt Q04912)
[37] = target: Platelet-derived growth factor receptor beta (Homo sapiens) (UniProt P09619)
[38] = target: Tyrosine-protein kinase Tec (Homo sapiens) (UniProt P42680)
[39] = target: Inhibitor of nuclear factor kappa-B kinase subunit alpha (Homo sapiens) (UniProt O15111)
Inhibitor of nuclear factor kappa-B kinase subunit alpha (Homo sapiens), sequence (O15111 whole entry): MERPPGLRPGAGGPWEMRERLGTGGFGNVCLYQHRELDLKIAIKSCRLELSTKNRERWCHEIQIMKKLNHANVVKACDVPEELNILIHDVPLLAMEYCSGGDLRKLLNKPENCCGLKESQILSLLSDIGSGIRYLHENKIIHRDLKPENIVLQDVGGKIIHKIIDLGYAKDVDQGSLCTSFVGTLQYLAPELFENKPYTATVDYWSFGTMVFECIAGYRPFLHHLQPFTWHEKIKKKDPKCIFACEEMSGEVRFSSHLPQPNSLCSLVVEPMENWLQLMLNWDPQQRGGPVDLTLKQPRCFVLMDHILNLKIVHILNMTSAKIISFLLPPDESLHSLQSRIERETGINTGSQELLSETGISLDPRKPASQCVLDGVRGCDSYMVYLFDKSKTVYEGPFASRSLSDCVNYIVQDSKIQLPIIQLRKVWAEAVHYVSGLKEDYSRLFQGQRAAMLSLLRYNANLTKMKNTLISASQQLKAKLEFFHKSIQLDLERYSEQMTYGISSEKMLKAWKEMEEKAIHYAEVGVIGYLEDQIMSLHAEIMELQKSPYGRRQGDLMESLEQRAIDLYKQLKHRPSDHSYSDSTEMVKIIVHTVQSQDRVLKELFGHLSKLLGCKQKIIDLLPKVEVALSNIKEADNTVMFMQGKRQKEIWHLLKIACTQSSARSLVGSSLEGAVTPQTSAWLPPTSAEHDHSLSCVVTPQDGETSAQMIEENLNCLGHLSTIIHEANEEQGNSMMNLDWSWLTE

[40] = target: Serine/threonine-protein kinase 25 (Homo sapiens) (UniProt O00506)
[41] = target: Serine/threonine-protein kinase Nek2 (Homo sapiens) (UniProt P51955)
[42] = target: Serine/threonine-protein kinase Nek4 (Homo sapiens) (UniProt P51957)
[43] = target: Mitogen-activated protein kinase kinase kinase 3 (Homo sapiens) (UniProt Q99759)
[44] = target: Dual specificity mitogen-activated protein kinase kinase 7 (Homo sapiens) (UniProt O14733)
[45] = target: Ribosomal protein S6 kinase alpha-6 (Homo sapiens) (UniProt Q9UK32)

## c1ccc(N2CCN(Cc3nc4ccccc4[nH]3)CC2)nc1 [ABT-724]
[1]
  residual activity: 100%
[2]
  residual activity: 100%
[3]
  residual activity: 100%
[4]
  residual activity: 93%
[5]
  residual activity: 100%
[6]
  residual activity: 96%
[7]
  residual activity: 100%
[8]
  residual activity: 100%
[9]
  residual activity: 100%
[10]
  residual activity: 87%
[11]
  residual activity: 79%
[12]
  residual activity: 100%
[13]
  residual activity: 100%
[14]
  residual activity: 100%
[15]
  residual activity: 100%
[16]
  residual activity: 100%
[17]
  residual activity: 100%
[18]
  residual activity: 100%
[19]
  residual activity: 100%
[20]
  residual activity: 72%
[21]
  residual activity: 100%
[22]
  residual activity: 86%
[23]
  residual activity: 100%
[24]
  residual activity: 100%
[25]
  residual activity: 100%
[26]
  residual activity: 100%
[27]
  residual activity: 100%
[28]
  residual activity: 93%
[29]
  residual activity: 100%
[30]
  residual activity: 93%
[31]
  residual activity: 100%
[32]
  residual activity: 100%
[33]
  residual activity: 85%
[34]
  residual activity: 100%
[35]
  residual activity: 67%
[36]
  residual activity: 100%
[37]
  residual activity: 100%
[38]
  residual activity: 100%
[39]
  residual activity: 100%
[40]
  residual activity: 94%
[41]
  residual activity: 100%
[42]
  residual activity: 100%
[43]
  residual activity: 100%
[44]
  residual activity: 100%
[45]
  residual activity: 100%

## CSc1cccnc1N1CCN(Cc2nc3ccccc3[nH]2)CC1 [A-769]
[1]
  residual activity: 93%
[2]
  residual activity: 93%
[3]
  residual activity: 100%
[4]
  residual activity: 100%
[5]
  residual activity: 89%
[6]
  residual activity: 79%
[7]
  residual activity: 98%
[8]
  residual activity: 78%
[9]
  residual activity: 94%
[10]
  residual activity: 94%
[11]
  residual activity: 96%
[12]
  residual activity: 74%
[13]
  residual activity: 85%
[14]
  residual activity: 80%
[15]
  residual activity: 100%
[16]
  residual activity: 94%
[17]
  residual activity: 89%
[18]
  residual activity: 100%
[19]
  residual activity: 86%
[20]
  residual activity: 100%
[21]
  residual activity: 100%
[22]
  residual activity: 100%
[23]
  residual activity: 100%
[24]
  residual activity: 73%
[25]
  residual activity: 84%
[26]
  residual activity: 100%
[27]
  residual activity: 93%
[28]
  residual activity: 72%
[29]
  residual activity: 100%
[30]
  residual activity: 98%
[31]
  residual activity: 92%
[32]
  residual activity: 85%
[33]
  residual activity: 100%
[34]
  residual activity: 72%
[35]
  residual activity: 31%
[36]
  residual activity: 100%
[37]
  residual activity: 100%
[38]
  residual activity: 90%
[39]
  residual activity: 98%
[40]
  residual activity: 100%
[41]
  residual activity: 96%
[42]
  residual activity: 88%
[43]
  residual activity: 83%
[44]
  residual activity: 92%
[45]
  residual activity: 81%
